The results in this text go back to paper PMC10746543, “Design principles for cyclin K molecular glue degraders” (Nature Chemical Biology, 2023).

Several values for one entry are separate records, joined by “and”; a condition that tells them apart may be missing. Equal values may be shown once. Read-outs that look alike come from different tables or passages of the source. A value given as a limit tells only on which side of the number the result lay.

One assay concerns HEK293T cells. Nature of the assay: Drug sensitivity assay (CellTiter-Glo viability) with or without MLN4924 pretreatment. The note with it: Supplementary Table 2; for Toxicity rescue: MLN4924-mediated cytotoxicity rescue, 10 µM used where n.d.; for EC50: Homo sapiens, HEK-293T, HEK293T viability, 72 h, compound alone, read-out: Cellular assays EC50. It is filed as cell-based, human. Here is the method:
HEK293T–Cas9 cells were resuspended at 0.15 × 10^6 ml^−1 treated with DMSO or 100 nM MLN4924 and plated on 384-well plates. After 2 h, the indicated drugs were dispensed with a D300 digital dispenser (Tecan). After 3 days of drug exposure, cell viability was assessed using the CellTiter-Glo luminescent assay (Promega, G7572) on an CLARIOstar Plus, MARS 3.4 (BMG LabTech). Cell viabilities were calculated relative to DMSO controls.
A general note: ATP-based viability assays read luminescence as a measure of living cells.

In the next assay the target is T1, CDK12–cyclin K and DDB1 (Homo sapiens, UniProt Q16531+Q9NYV4, K965R).
T1 construct: His6–CDK12 (a.a. 713–1,052); full-length or beta-propeller B domain deletion (ΔBPB: a.a. 396–705 deleted) constructs of His6–DDB1ΔBPB, StrepII–Avi–DDB1, or His6–Spy–DDB1; made in house; host or cells: Trichoplusia ni High Five insect cells (baculovirus)
Nature of the assay: TR-FRET ternary complex formation assay (compound titration). The note with it: for TR-FRET signal at compound concentration: replicate titrations. Format: binding. From the text:
A 70 μs delay was employed to reduce background fluorescence. The TR-FRET signal was obtained through calculating the ratio of 520 nm to 490 nm fluorescence, and Prism 9 (GraphPad) was used for further data analysis.
(TR-FRET usually uses a lanthanide donor and a delayed reading to cut background.)

Setting [1] is: Supplementary Table 2, read-out: TR-FRET EC50 TR-FRET.
[2] abbreviates: compound concentration 79.2001 nM.
[3] abbreviates: compound concentration 158.4 nM.
Where [4] appears, read: compound concentration 309.6 nM.
The mark [5] stands for this setting: compound concentration 626.401 nM.
Setting [6] is: compound concentration 1252.8 nM.
Setting [7] is: compound concentration 9936.01 nM.
[8] abbreviates: compound concentration 20016 nM.
[9] abbreviates: in vitro complex formation, 50 nM CDK12–cyclin K, 100 nM DDB1, text and figures, read-out: TR-FRET EC50.

T1 sequence (Q9NYV4 713-1052 K965R): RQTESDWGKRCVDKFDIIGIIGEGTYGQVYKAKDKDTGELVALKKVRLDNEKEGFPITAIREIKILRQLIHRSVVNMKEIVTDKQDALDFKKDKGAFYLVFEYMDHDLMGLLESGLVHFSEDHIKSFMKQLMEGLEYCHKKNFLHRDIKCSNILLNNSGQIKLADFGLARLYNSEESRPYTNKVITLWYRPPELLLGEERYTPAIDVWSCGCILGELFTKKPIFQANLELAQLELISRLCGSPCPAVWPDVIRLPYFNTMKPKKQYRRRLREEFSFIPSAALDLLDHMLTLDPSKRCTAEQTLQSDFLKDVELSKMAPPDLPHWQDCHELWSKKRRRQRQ
T1 sequence (O75909 1-267 partner): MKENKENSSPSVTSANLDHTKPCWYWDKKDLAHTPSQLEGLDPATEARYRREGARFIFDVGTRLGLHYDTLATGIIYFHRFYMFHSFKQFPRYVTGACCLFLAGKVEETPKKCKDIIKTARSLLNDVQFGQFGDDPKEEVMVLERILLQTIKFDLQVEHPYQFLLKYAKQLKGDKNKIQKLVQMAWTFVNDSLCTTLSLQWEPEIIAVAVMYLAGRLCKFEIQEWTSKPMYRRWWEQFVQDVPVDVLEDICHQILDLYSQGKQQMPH
T1 sequence (Q16531 whole entry): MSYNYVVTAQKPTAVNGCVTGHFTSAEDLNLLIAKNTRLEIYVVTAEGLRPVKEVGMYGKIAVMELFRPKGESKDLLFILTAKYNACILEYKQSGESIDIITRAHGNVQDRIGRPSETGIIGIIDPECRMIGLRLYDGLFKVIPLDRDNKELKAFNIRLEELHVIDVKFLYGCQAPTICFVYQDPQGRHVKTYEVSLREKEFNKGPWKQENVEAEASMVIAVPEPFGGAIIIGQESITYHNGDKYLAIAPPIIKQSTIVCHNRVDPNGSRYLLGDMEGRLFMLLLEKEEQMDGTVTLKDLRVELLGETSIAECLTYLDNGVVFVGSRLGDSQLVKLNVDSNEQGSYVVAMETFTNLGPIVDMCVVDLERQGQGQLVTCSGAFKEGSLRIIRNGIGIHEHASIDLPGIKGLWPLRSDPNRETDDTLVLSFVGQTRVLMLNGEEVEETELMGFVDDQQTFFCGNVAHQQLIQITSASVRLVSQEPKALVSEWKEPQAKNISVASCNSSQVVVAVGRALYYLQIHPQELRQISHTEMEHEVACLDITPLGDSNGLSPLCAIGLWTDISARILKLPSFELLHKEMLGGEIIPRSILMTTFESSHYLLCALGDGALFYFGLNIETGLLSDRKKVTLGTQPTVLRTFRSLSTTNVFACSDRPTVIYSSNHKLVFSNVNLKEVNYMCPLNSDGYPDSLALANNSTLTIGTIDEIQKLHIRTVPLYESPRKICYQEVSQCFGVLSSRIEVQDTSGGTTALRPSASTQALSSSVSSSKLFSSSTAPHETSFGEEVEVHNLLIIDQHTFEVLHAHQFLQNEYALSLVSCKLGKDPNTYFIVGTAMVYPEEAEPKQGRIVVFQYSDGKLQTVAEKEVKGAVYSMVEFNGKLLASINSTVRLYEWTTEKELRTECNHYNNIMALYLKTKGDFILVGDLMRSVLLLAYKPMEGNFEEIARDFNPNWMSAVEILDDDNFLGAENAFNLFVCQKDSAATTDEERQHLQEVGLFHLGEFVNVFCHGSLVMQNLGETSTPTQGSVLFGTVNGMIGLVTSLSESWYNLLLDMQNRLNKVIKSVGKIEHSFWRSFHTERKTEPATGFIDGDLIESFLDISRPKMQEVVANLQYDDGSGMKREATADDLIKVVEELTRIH

Regarding `CC[C@H](CO)Nc1nc(NCc2ccccc2)c2ncn(C(C)C)c2n1` [Roscovitine], the Toxicity rescue in the assay on HEK293T cells is 0%.

One may read the EC50 as the concentration giving half of the maximal effect. As to `Cn1cc(-n2cnc3c(NCc4ccc(OCCO)cc4)nc(N4CCOCC4)nc32)cn1` [DS62], the EC50 in the assay with HEK293T cells was more than 10 µM; at CDK12–cyclin K and DDB1 (setting [1]), approximately 2.2 µM; at CDK12–cyclin K and DDB1 (setting [9]), 2.2 ± 0.326 µM. Moreover, the Toxicity rescue in the assay with HEK293T cells is reported as 0%. The TR-FRET signal on CDK12–cyclin K and DDB1 (compound concentration 4.68 nM) was 0.2045 and 0.2293; on CDK12–cyclin K and DDB1 (compound concentration 21.6 nM) it was 0.2001 and 0.225; at CDK12–cyclin K and DDB1 (compound concentration 36 nM), 0.2055 and 0.2312; on CDK12–cyclin K and DDB1 (setting [2]), 0.2131 and 0.2461; on CDK12–cyclin K and DDB1 (setting [3]), 0.2289 and 0.2537; on CDK12–cyclin K and DDB1 (setting [4]), 0.2472 and 0.27. The TR-FRET signal at CDK12–cyclin K and DDB1 (setting [5]) is 0.294 and 0.3255; at CDK12–cyclin K and DDB1 (setting [6]), 0.3562 and 0.4045; at CDK12–cyclin K and DDB1 (compound concentration 2448 nM) it was 0.4507 and 0.5009; on CDK12–cyclin K and DDB1 (setting [7]) it was 0.6036 and 0.6674; at CDK12–cyclin K and DDB1 (setting [8]) it was 0.6334 and 0.6963. Besides, the “DDB1–CDK12 complex formation, result in words” value on CDK12–cyclin K and DDB1 (in vitro TR-FRET) is reported as “incompatible with the DDB1–CDK12 interface”.

With `Cn1cc(-n2cnc3c(NCc4nc5ccccc5[nH]4)nc(N4CCOCC4)nc32)cn1` [DS55], the EC50 in the assay on HEK293T cells worked out at 1.03 µM; at CDK12–cyclin K and DDB1 (setting [1]) it was 0.0356 µM; on CDK12–cyclin K and DDB1 (setting [9]) it was 0.036 ± 0.002 µM. In addition, the Toxicity rescue with HEK293T cells is 336%. The TR-FRET signal at CDK12–cyclin K and DDB1 (compound concentration 0.468 nM) is 0.2624 and 0.2805; at CDK12–cyclin K and DDB1 (compound concentration 2.16 nM), 0.2884 and 0.3105; on CDK12–cyclin K and DDB1 (compound concentration 3.6 nM), 0.3317 and 0.3563; at CDK12–cyclin K and DDB1 (compound concentration 7.92001 nM), 0.4199 and 0.4425; on CDK12–cyclin K and DDB1 (compound concentration 15.84 nM), 0.5444 and 0.5762; at CDK12–cyclin K and DDB1 (compound concentration 30.96 nM) it was 0.7696 and 0.7908. Moreover, the TR-FRET signal on CDK12–cyclin K and DDB1 (compound concentration 62.6401 nM) is 1.019 and 1.061; at CDK12–cyclin K and DDB1 (compound concentration 125.28 nM), 1.199 and 1.278; at CDK12–cyclin K and DDB1 (compound concentration 244.8 nM), 1.2725 and 1.386; at CDK12–cyclin K and DDB1 (compound concentration 993.601 nM), 1.352 and 1.424; at CDK12–cyclin K and DDB1 (compound concentration 2001.6 nM), 1.301 and 1.386. In addition, on CDK12–cyclin K and DDB1 (compound concentration 0.468 nM, raw replicate titration data), the “TR-FRET signal at compound concentration 0.468 nM” value was 0.2624 and 0.2805. Further, the “TR-FRET signal at compound concentration 2.16 nM” value at CDK12–cyclin K and DDB1 (compound concentration 2.16 nM, raw replicate titration data) was 0.2884 and 0.3105. Moreover, on CDK12–cyclin K and DDB1 (compound concentration 3.6 nM, raw replicate titration data), the “TR-FRET signal at compound concentration 3.6 nM” value is 0.3317 and 0.3563. The “TR-FRET signal at compound concentration 7.92001 nM” value on CDK12–cyclin K and DDB1 (compound concentration 7.92001 nM, raw replicate titration data) was 0.4199 and 0.4425. The “TR-FRET signal at compound concentration 15.84 nM” value on CDK12–cyclin K and DDB1 (compound concentration 15.84 nM, raw replicate titration data) is 0.5444 and 0.5762. On CDK12–cyclin K and DDB1 (compound concentration 30.96 nM, raw replicate titration data), the “TR-FRET signal at compound concentration 30.96 nM” value is 0.7696 and 0.7908. Besides, the “TR-FRET signal at compound concentration 62.6401 nM” value at CDK12–cyclin K and DDB1 (compound concentration 62.6401 nM, raw replicate titration data) was 1.019 and 1.061. The “TR-FRET signal at compound concentration 125.28 nM” value at CDK12–cyclin K and DDB1 (compound concentration 125.28 nM, raw replicate titration data) was 1.199 and 1.278. Besides, on CDK12–cyclin K and DDB1 (compound concentration 244.8 nM, raw replicate titration data), the “TR-FRET signal at compound concentration 244.8 nM” value is 1.2725 and 1.386. Also, the “TR-FRET signal at compound concentration 993.601 nM” value at CDK12–cyclin K and DDB1 (compound concentration 993.601 nM, raw replicate titration data) was 1.352 and 1.424. On CDK12–cyclin K and DDB1 (compound concentration 2001.6 nM, raw replicate titration data), the “TR-FRET signal at compound concentration 2001.6 nM” value is 1.301 and 1.386.

As for `Cn1cc(-n2cnc3c(NCc4cc5ccccc5[nH]4)nc(N4CCOCC4)nc32)cn1` [DS56], the “TR-FRET signal at compound concentration 4.68 nM” value on CDK12–cyclin K and DDB1 (compound concentration 4.68 nM, raw replicate titration data) was 0.1981 and 0.2221. Further, the “TR-FRET signal at compound concentration 21.6 nM” value on CDK12–cyclin K and DDB1 (compound concentration 21.6 nM, raw replicate titration data) was 0.2108 and 0.2312. Moreover, the “TR-FRET signal at compound concentration 36 nM” value at CDK12–cyclin K and DDB1 (compound concentration 36 nM, raw replicate titration data) is 0.221 and 0.2484. Moreover, the “TR-FRET signal at compound concentration 79.2001 nM” value at CDK12–cyclin K and DDB1 (compound concentration 79.2001 nM, raw replicate titration data) is 0.2309 and 0.2483. Also, the “TR-FRET signal at compound concentration 158.4 nM” value on CDK12–cyclin K and DDB1 (compound concentration 158.4 nM, raw replicate titration data) was 0.2488 and 0.2752. In addition, the “TR-FRET signal at compound concentration 309.6 nM” value at CDK12–cyclin K and DDB1 (compound concentration 309.6 nM, raw replicate titration data) was 0.2871 and 0.3205. The “TR-FRET signal at compound concentration 626.401 nM” value on CDK12–cyclin K and DDB1 (compound concentration 626.401 nM, raw replicate titration data) was 0.3642 and 0.3972. Besides, the “TR-FRET signal at compound concentration 1252.8 nM” value on CDK12–cyclin K and DDB1 (compound concentration 1252.8 nM, raw replicate titration data) was 0.4852 and 0.5291. On CDK12–cyclin K and DDB1 (compound concentration 2448 nM, raw replicate titration data), the “TR-FRET signal at compound concentration 2448 nM” value is 0.6251 and 0.6926. Further, at CDK12–cyclin K and DDB1 (compound concentration 9936.01 nM, raw replicate titration data), the “TR-FRET signal at compound concentration 9936.01 nM” value is 0.9055 and 1.021. Also, at CDK12–cyclin K and DDB1 (compound concentration 20016 nM, raw replicate titration data), the “TR-FRET signal at compound concentration 20016 nM” value was 0.9207 and 1.03. Besides, the half-maximal effective concentration (EC50) on CDK12–cyclin K and DDB1 (setting [9]) came to 2.11 ± 0.252 µM.

With `CC[C@H](CO)Nc1nc(NCCCCn2c(=O)oc3ccccc32)c2ncn(C(C)C)c2n1` [DS46], the EC50 in the assay with HEK293T cells is more than 10 µM; on CDK12–cyclin K and DDB1 (setting [1]), 0.627 µM. Also, the Toxicity rescue in the assay on HEK293T cells was 0%. The “TR-FRET signal at compound concentration” value is 0.1284 and 0.1304 on CDK12–cyclin K and DDB1 (compound concentration 4.68 nM); 0.1505 and 0.151 on CDK12–cyclin K and DDB1 (compound concentration 21.6 nM); 0.1775 and 0.1803 on CDK12–cyclin K and DDB1 (compound concentration 36 nM); 0.2245 and 0.2264 on CDK12–cyclin K and DDB1 (setting [2]); 0.2818 and 0.3032 on CDK12–cyclin K and DDB1 (setting [3]); 0.3899 and 0.4001 at CDK12–cyclin K and DDB1 (setting [4]). In addition, the “TR-FRET signal at compound concentration” value on CDK12–cyclin K and DDB1 (setting [5]) is 0.5107 and 0.5141; on CDK12–cyclin K and DDB1 (setting [6]) it was 0.639 and 0.6296; on CDK12–cyclin K and DDB1 (compound concentration 2448 nM), 0.7343 and 0.7319; on CDK12–cyclin K and DDB1 (setting [7]), 0.8755 and 0.8533; on CDK12–cyclin K and DDB1 (setting [8]), 0.861 and 0.8686.
